Test results taken from patent publication US12371460B2, “Glycan-binding proteins and related compositions and methods” (priority 2019, dated 2025).

Biological target: Sulfolobus solfataricus Sso7d (rcSso7d, SEQ ID NO: 1) variant clone E, SEQ ID NO: 398 (Saccharolobus solfataricus, UniProt P61991, A45G/K22H/K28Q/K40A/K7T/K9Q/M29W/R43W/S31W/T33I/T41K/V26W/W24R)
Experiment: biolayer interferometry, clone E immobilized on Ni-NTA tip
Format: binding
Settings: 1 uM solution of the sugar; FIG. 2E
Description: The traces show an increase in nm as sugar starts binding to protein on the tip, then a decrease in nm as the tip is moved from the sugar solution to buffer only.

Sequence of Sulfolobus solfataricus Sso7d (rcSso7d, SEQ ID NO: 1) variant clone E, SEQ ID NO: 398 (P61991 other isoform, or with tags, fused parts or gaps with the stated changes): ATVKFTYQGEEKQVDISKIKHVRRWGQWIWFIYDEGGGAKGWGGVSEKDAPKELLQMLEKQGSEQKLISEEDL

Question: CC(=O)N[C@@H]1[C@@H](O[C@@H]2O[C@H](CO)[C@H](O)[C@H](O)[C@H]2O)[C@@H](O)[C@@H](CO)O[C@@H]1O [TF antigen, Galβ1-3GalNAcα] was tested. Which “binding (biolayer interferometry traces)” value did it give?
Answer: The value was “bound”.
